Results on six compounds are retold here after patent US20080139626A1, “Novel Method” (priority 2005, published 2008).

≈ marks a conversion by molar mass, not a printed value. Bounds are passed on as bounds.

For assay [1], the system named is S. pneumoniae Eryth^R. Briefly: MIC by broth microdilution. Type of assay: cell-based. The settings on record: 5 isolates. As for the experimental part: (§1) Whole-cell antimicrobial activity was determined by broth microdilution. Test compounds were dissolved in DMSO and diluted 1:10 in water to produce a 64 mcg/ml stock solution. Using a 96 well microtitre plate, a Microlab AT Plus 2 (Hamilton Co., Reno, Nev.) serially diluted 50 ul of the stock solution into an appropriate broth medium. Staphylococcal isolates were tested using cation adjusted Mueller Hinton broth. For S. pneumonaie testing, the Mueller Hinton broth was supplemented with 5% lysed horse blood and H. influenzae was tested with Haemophilus Test Medium. After the compounds were diluted, a 50 ul aliquot of the test isolate (˜1×10^6 cfu/ml) prepared in normal saline was added to each well of the microtitre plate. The final test concentrations ranged from 0.016-16 ug/mL. Inoculated plates were incubated at 35° C. in ambient air for 18 to 24 hours. The minimum inhibitory concentration (MIC) was determined as the lowest concentration of compound that inhibited visible growth.

For assay [2], the system named is S. aureus Tetracycline^R. As to the kind of experiment: MIC by broth microdilution. Particulars: 6 isolates. The assay is classed as cell-based. As for the experimental part: as §1
Assay [3] deals with S. pyogenes (macrolide-resistant). As to the kind of experiment: MIC by broth microdilution. Type of assay: cell-based. The settings on record: N=83; for MIC50 / MIC90: Streptococcus pyogenes. As for the experimental part:
as §1

In assay [4] the test system is S. aureus Mupirocin^R. As to the kind of experiment: MIC by broth microdilution. Type of assay: cell-based. Particulars: 8 isolates. As for the experimental part:
as §1

In assay [5] the test system is H. influenzae BLNAR. Briefly: MIC by broth microdilution. Particulars: 5 isolates. Type of assay: cell-based. As for the experimental part: as §1
For assay [6], the system named is S. pneumoniae (levofloxacin-resistant). As to the kind of experiment: MIC by broth microdilution. Particulars: N=13; for MIC50 / MIC90: Streptococcus pneumoniae. The assay is classed as cell-based. As for the experimental part:
as §1

Assay [7] concerns H. influenzae ClarR. As to the kind of experiment: MIC by broth microdilution. The assay is classed as cell-based. The settings on record: 5 isolates. As for the experimental part:
as §1

Assay [8] has as its system S. aureus VRSA (vanc MIC > 4 μg/mL). As to the kind of experiment: MIC by broth microdilution. The assay is classed as cell-based. Particulars: 2 isolates. As for the experimental part: as §1
The test system of assay [9] is S. aureus Linezolid^R. As to the kind of experiment: MIC by broth microdilution. The assay is classed as cell-based. Particulars: 3 isolates. As for the experimental part: as §1
For assay [10], the system named is S. aureus (methicillin-resistant). Briefly: MIC by broth microdilution. Particulars: N=51; for MIC50 / MIC90: Staphylococcus aureus. Type of assay: cell-based. As for the experimental part: as §1
The subject of assay [11] is S. aureus Ketek^R. As to the kind of experiment: MIC by broth microdilution. Type of assay: cell-based. The settings on record: 4 isolates. As for the experimental part:
as §1

The test system of assay [12] is S. aureus VISA (vanc. MIC 4 μg/mL). As to the kind of experiment: MIC by broth microdilution. Particulars: 4 isolates. The assay is classed as cell-based. As for the experimental part: as §1
The test system of assay [13] is S. aureus Meth^R/Ery^R. Briefly: MIC by broth microdilution. Type of assay: cell-based. Particulars: 10 isolates. As for the experimental part: as §1
For assay [14], the system named is S. epidermidis Meth^R. As to the kind of experiment: MIC by broth microdilution. Type of assay: cell-based. Particulars: 6 isolates. As for the experimental part: as §1
The test system of assay [15] is S. pneumoniae (penicillin-resistant). As to the kind of experiment: MIC by broth microdilution. The settings on record: N=352; for MIC50 / MIC90: Streptococcus pneumoniae. Type of assay: cell-based. As for the experimental part:
as §1

Assay [16] relates to S. pneumoniae (macrolide-resistant). Briefly: MIC by broth microdilution. The assay is classed as cell-based. The settings on record: N=552; for MIC50 / MIC90: Streptococcus pneumoniae. As for the experimental part: as §1
For assay [17], the system named is S. pneumoniae Pen^R. As to the kind of experiment: MIC by broth microdilution. Type of assay: cell-based. Particulars: 5 isolates. As for the experimental part:
as §1

Assay [18] has as its system S. pneumoniae Cipro^R. Briefly: MIC by broth microdilution. Particulars: 5 isolates. The assay is classed as cell-based. As for the experimental part:
as §1

For assay [19], the system named is methicillin resistant S. aureus WCUH29. Briefly: murine groin abscess infection model, oral efficacy. Type of assay: in vivo. Particulars: mouse; for reduction of bacterial counts compared to non-treated controls: oral, p≦0.01. As for the experimental part:
Oral efficacy of Compound A was evaluated in a murine groin abscess infection model caused by a methicillin resistant S. aureus WCUH29. Animals were infected via subcutaneous injection into the groin with 0.5 mL of inoculum (approximately 5.7 log10 cfu/mouse). Groups of mice (n=5) received either Compound A (100, 300 or 600 mg/kg), moxifloxacin (100 mg/kg) or azithromycin (50 mg/kg).

In the case of `C=C[C@]1(C)C[C@@H](OC(=O)NC(=O)c2cnc(OC)c(N)c2)[C@]2(C)C(C)CC[C@]3(C[C@H](O)C(=O)[C@H]32)[C@@H](C)[C@@H]1O` (stereo partly shown) [Compound A], the “MIC Range” value in assay [1] was 0.125 to 0.25 µg/mL; in assay [2], 0.5 to 2 µg/mL; in assay [3], 0.12 to 0.25 µg/mL; in assay [4], 0.25 to 1 µg/mL; in assay [5] it was 2 µg/mL (≈ 3.78 µM); in assay [6], 0.12 to 0.5 µg/mL. Moreover, the “MIC Range” value was 4 to 8 µg/mL in assay [7]; 0.5 µg/mL (≈ 0.944 µM) in assay [8]; 2 µg/mL (≈ 3.78 µM) in assay [9]; 0.25 to 2 µg/mL in assay [10]; 0.5 to 4 µg/mL in assay [11]; 0.5 to 4 µg/mL in [12]. For the same compound, the “MIC Range” value in assay [13] is 0.5 to 2 µg/mL; in [14], 0.25 to 1 µg/mL; in assay [15], 0.03 to 1 µg/mL; in assay [16], 0.015 to 1 µg/mL; in assay [17], 0.06 to 0.25 µg/mL; in [18], 0.125 to 0.25 µg/mL. Also, the MIC50 was determined as 0.25 µg/mL (≈ 0.472 µM) in [3]; 0.25 µg/mL (≈ 0.472 µM) in assay [6]; 1 µg/mL (≈ 1.89 µM) in [10]; 0.25 µg/mL (≈ 0.472 µM) in assay [15]; 0.25 µg/mL (≈ 0.472 µM) in [16]. For the same compound, the MIC90 was 0.25 µg/mL (≈ 0.472 µM) in [3]; 0.5 µg/mL (≈ 0.944 µM) in assay [6]; 1 µg/mL (≈ 1.89 µM) in assay [10]; 0.25 µg/mL (≈ 0.472 µM) in [15]; 0.25 µg/mL (≈ 0.472 µM) in [16]. The “reduction of bacterial counts compared to non-treated controls” value in assay [19] (300 mg/kg) came out at 3.6 log10 cfu/abscess; in assay [19] (600 mg/kg), 4.3 log10 cfu/abscess.

For `CO/N=C(\C(=O)N[C@@H]1C(=O)N2C(C(=O)O)=C(COC(N)=O)CS[C@H]12)c1ccco1` [Cefuroxime], the “MIC Range” value in assay [3] was “≦0.015-0.12 μg/mL”; in assay [6] it was “≦0.015-8 μg/mL”; in assay [15], 1 to 32 µg/mL; in [16], “≦0.015-32 μg/mL”. The MIC50 is at most 0.015 µg/mL in [3]; 2 µg/mL (≈ 4.71 µM) in [6]; 4 µg/mL (≈ 9.43 µM) in [10]; 4 µg/mL (≈ 9.43 µM) in assay [15]; 4 µg/mL (≈ 9.43 µM) in assay [16]. The MIC90 in [3] is at most 0.015 µg/mL; in assay [6], 8 µg/mL (≈ 18.9 µM); in assay [10], above 32 µg/mL; in assay [15] it was 8 µg/mL (≈ 18.9 µM); in [16], 8 µg/mL (≈ 18.9 µM).

With `CC[C@H]1OC(=O)[C@H](C)C(=O)[C@H](C)[C@@H](O[C@@H]2O[C@H](C)C[C@H](N(C)C)[C@H]2O)[C@](C)(OC)C[C@@H](C)C(=O)[C@H](C)[C@H]2N(CCCCn3cnc(-c4cccnc4)c3)C(=O)O[C@]12C` [Telithromycin], the MIC50 turned out to be 0.03 µg/mL (≈ 0.0369 µM) in assay [3]; 0.12 µg/mL (≈ 0.148 µM) in assay [6]; 0.25 µg/mL (≈ 0.308 µM) in assay [10]; 0.25 µg/mL (≈ 0.308 µM) in assay [15]; 0.25 µg/mL (≈ 0.308 µM) in assay [16]. Moreover, the MIC90 in assay [3] was 8 µg/mL (≈ 9.85 µM); in [6], 0.5 µg/mL (≈ 0.616 µM); in assay [10], above 16 µg/mL; in assay [15], 2 µg/mL (≈ 2.46 µM); in assay [16] it was 2 µg/mL (≈ 2.46 µM). The results for the “MIC Range” value in assay [6], in assay [15] and in [16] were “≦0.002-2 μg/mL”, “≦0.002-16 μg/mL” and “≦0.002-16 μg/mL”, respectively.

Take `COc1c(N2C[C@@H]3CCCN[C@@H]3C2)c(F)cc2c(=O)c(C(=O)O)cn(C3CC3)c12` [Moxifloxacin]: the “MIC Range” value in assay [3] fell in the range of 0.06 to 0.5 µg/mL. The MIC50 in [3] turned out to be 0.12 µg/mL (≈ 0.299 µM); in [6], 4 µg/mL (≈ 9.96 µM); in assay [10], 0.12 µg/mL (≈ 0.299 µM); in [15], 0.12 µg/mL (≈ 0.299 µM); in assay [16], 0.12 µg/mL (≈ 0.299 µM). The MIC90 in [3] is 0.25 µg/mL (≈ 0.623 µM); in assay [6], 8 µg/mL (≈ 19.9 µM); in [10] it was 4 µg/mL (≈ 9.96 µM); in assay [15], 0.25 µg/mL (≈ 0.623 µM); in assay [16], 0.25 µg/mL (≈ 0.623 µM). Further, the “reduction of bacterial counts” value in assay [19] (100 mg/kg) came to 4.6 log10 cfu/abscess.

`CC[C@H]1OC(=O)[C@H](C)[C@@H](O[C@H]2C[C@@](C)(OC)[C@@H](O)[C@H](C)O2)[C@H](C)[C@@H](O[C@@H]2O[C@H](C)C[C@H](N(C)C)[C@H]2O)[C@](C)(O)C[C@@H](C)CN(C)[C@H](C)[C@@H](O)[C@]1(C)O` [Azithromycin]: the MIC50 was 16 µg/mL (≈ 21.4 µM) in assay [3]; 16 µg/mL (≈ 21.4 µM) in assay [6]; above 16 µg/mL in [10]; above 16 µg/mL in assay [15]; above 16 µg/mL in [16]. The MIC90 in assay [3], in assay [6], in assay [10], in [15] and in assay [16] was above 16 µg/mL throughout. The “reduction of bacterial counts” value in assay [19] (50 mg/kg) was 3.4 log10 cfu/abscess.

`C[C@H]1COc2c(N3CCN(C)CC3)c(F)cc3c(=O)c(C(=O)O)cn1c23` [Levofloxacin]: in [3], the “MIC Range” value fell in the range of 0.12 to 2 µg/mL. For the same compound, the MIC50 in [3] was 0.5 µg/mL (≈ 1.38 µM); in assay [6], above 8 µg/mL; in assay [10], 0.5 µg/mL (≈ 1.38 µM); in [15], 1 µg/mL (≈ 2.77 µM); in [16], 1 µg/mL (≈ 2.77 µM). Besides, the MIC90 in assay [3] was 1 µg/mL (≈ 2.77 µM); in assay [6], above 8 µg/mL; in assay [10], above 8 µg/mL; in assay [15], 1 µg/mL (≈ 2.77 µM); in assay [16], 2 µg/mL (≈ 5.53 µM).
